One experiment relates to Bacillus cereus. Kind of experiment: Checkerboard synergy (FICI) of antibiotics with SP-BIM. The class given is cell-based. The note with it: for MIC: 24 h, antibiotic alone, read-out: MIC antibiotic only.
The next experiment deals with Enterococcus faecium. The description is as above. The format is cell-based. To be noted: Enterococcus faecium.
The subject of experiment [1] is Streptococcus pneumoniae. The description is as above. The format is cell-based.
Experiment [2] has as its system Klebsiella pneumoniae. The description is as above. The format is cell-based.
A further experiment deals with Escherichia coli. The experiment is described as above.
Experiment [3] deals with Klebsiella pneumoniae. Briefly: Adjuvant broth microdilution (antibiotic MIC with SP-BIM at 50 μg/mL). The format is cell-based. The note with it: Klebsiella pneumoniae; antibiotic alone; Table 7; read-out: MIC of antibiotic, No compound.
The subject of a further experiment is MRSA. Described as above. The class given is cell-based, Staphylococcus aureus. To be noted: Staphylococcus aureus, antibiotic alone, Table 4, read-out: MIC of antibiotic, No compound.
For experiment [4], the system named is Streptococcus pneumoniae. Described as above. The format is cell-based. The note with it: Streptococcus pneumoniae; Streptococcus pneumonia; antibiotic alone; Table 5; read-out: MIC of antibiotic, No compound.
In a further experiment the test system is Staphylococcus aureus. Kind of experiment: Checkerboard synergy (FICI) of antibiotics with SP-BIM. The class given is cell-based. The note with it: Staphylococcus aureus, Staphylococcus aureus.
For another experiment, the system named is Candida albicans. Described as above. Set-up: MIC SP-BIM 13 only / MIC in combination: Antibiotic / MIC antibiotic only: unit not given beside the values.
The subject of a further experiment is Escherichia coli O157:H7. Kind of experiment: Rescue concentrations of SP-BIM that reactivate antibiotic. The format is cell-based. To be noted: for MIC: Escherichia coli.
Where [5] appears, read: SP-BIM 9 in combination with the labelled antibiotic.
Where [6] appears, read: SP-BIM 13 in combination with the labelled antibiotic.
[7] abbreviates: antibiotic in combination with SP-BIM 9.
Setting [8] is: antibiotic in combination with SP-BIM 13.
Where [9] appears, read: Streptococcus pneumoniae, antibiotic + SP-BIM 13.

Converted amounts (≈) assume the structure as drawn. Where two headings read alike, the source gives them in different places.

`C[C@H]1[C@H](NC(=O)/C(=N\OC(C)(C)C(=O)O)c2csc(N)n2)C(=O)N1S(=O)(=O)O` [Aztreonam, aztreonam]: the MIC in the experiment with Bacillus cereus (SP-BIM 9 checkerboard) was greater than 250 µg/mL; in the experiment with Bacillus cereus (SP-BIM 13 checkerboard) it was 250 µg/mL; with Klebsiella pneumoniae [3], 8 µg/mL; with MRSA it was greater than 250 µg/mL; with Streptococcus pneumoniae [4], greater than 250 µg/mL; in the experiment with Staphylococcus aureus (24 h, antibiotic alone, SP-BIM 9 checkerboard, read-out: MIC antibiotic only), greater than 250 µg/mL. Moreover, the MIC was greater than 250 µg/mL in the experiment on Staphylococcus aureus (24 h, antibiotic alone, SP-BIM 13 checkerboard, read-out: MIC antibiotic only); 250 µg/mL in the experiment with Staphylococcus aureus (MRSA, read-out: MIC of aztreonam only, MRSA, checkerboard); greater than 250 µg/mL in the experiment on Candida albicans (24 h, read-out: MIC antibiotic only). Besides, the “MIC in combination, SP-BIM 9” value in the experiment on Bacillus cereus (SP-BIM 9 concentration in combination with the labelled antibiotic) stood at 63 µg/mL. The “FIC of SP-BIM 9” value with Bacillus cereus (setting [5]) is given as 0.252; in the experiment with Klebsiella pneumoniae [2] (setting [5]) it was 0.064; with Escherichia coli (setting [5]) it was 0.5; in the experiment with Staphylococcus aureus (setting [5]), 0.12. Besides, the “FIC of SP-BIM 13” value in the experiment on Bacillus cereus (setting [6]) was 0.5; with Enterococcus faecium (setting [6]) it was 1.0; in the experiment with Streptococcus pneumoniae [1] (Streptococcus pneumoniae, SP-BIM 13 in combination with the labelled antibiotic), 0.3; with Klebsiella pneumoniae [2] (setting [6]), 0.3; in the experiment on Escherichia coli (setting [6]) it was 1.0; with Staphylococcus aureus (setting [6]), 0.5. Moreover, the “FIC of SP-BIM 13” value in the experiment on Candida albicans (setting [6]) is on record as 1.0. The Interpretation entry in the experiment with Bacillus cereus (antibiotic + SP-BIM 9) was “Synergy (Synergy: FICI≤0.5)”; in the experiment on Bacillus cereus (antibiotic + SP-BIM 13), “Indifferent (Indifferent: FICI>1.0-4.0)”; in the experiment on Enterococcus faecium (antibiotic + SP-BIM 13), “Indifferent (Indifferent: FICI>1.0-4.0)”; with Streptococcus pneumoniae [1] (setting [9]), “Synergy (Synergy: FICI≤0.5)”; in the experiment with Klebsiella pneumoniae [2] (antibiotic + SP-BIM 9), “Synergy (Synergy: FICI≤0.5)”; with Klebsiella pneumoniae [2] (antibiotic + SP-BIM 13) it was “Synergy (Synergy: FICI≤0.5)”. For the same molecule, the Interpretation result in the experiment on Escherichia coli (antibiotic + SP-BIM 9) is given as “Synergy (Synergy: FICI≤0.5)”; in the experiment with Escherichia coli (antibiotic + SP-BIM 13), “Indifferent (Indifferent: FICI>1.0-4.0)”; in the experiment on Staphylococcus aureus (antibiotic + SP-BIM 9), “Synergy (Synergy: FICI≤0.5)”; in the experiment with Staphylococcus aureus (antibiotic + SP-BIM 13), “Additive (Additive: FICI>0.5-1.0)”; with Candida albicans (antibiotic + SP-BIM 13), “Indifferent (Indifferent: FICI>1.0-4.0)”. Also, the “Σ FIC” value in the experiment with Bacillus cereus (antibiotic + SP-BIM 9) was less than 0.5; in the experiment with Bacillus cereus (antibiotic + SP-BIM 13), 1.5; in the experiment on Enterococcus faecium (antibiotic + SP-BIM 13), 2.0; with Streptococcus pneumoniae [1] (Streptococcus pneumonia (title: Streptococcus pyogenes), antibiotic + SP-BIM 9), less than 0.00; with Streptococcus pneumoniae [1] (setting [9]), less than 0.3; with Klebsiella pneumoniae [2] (antibiotic + SP-BIM 9) it was less than 0.1. The “Σ FIC” value is recorded as less than 0.3 in the experiment on Klebsiella pneumoniae [2] (antibiotic + SP-BIM 13); less than 0.8 with Escherichia coli (antibiotic + SP-BIM 9); less than 2.0 in the experiment with Escherichia coli (antibiotic + SP-BIM 13); less than 0.16 in the experiment on Staphylococcus aureus (antibiotic + SP-BIM 9); less than 0.6 with Staphylococcus aureus (antibiotic + SP-BIM 13); less than 2.0 with Candida albicans (antibiotic + SP-BIM 13). Moreover, the “MIC in combination, Antibiotic” value in the experiment on Bacillus cereus (setting [7]) was found to be 63 µg/mL; with Bacillus cereus (setting [8]) it was 250 µg/mL; with Streptococcus pneumoniae [1] (Streptococcus pneumoniae, antibiotic in combination with SP-BIM 13) it was 8 µg/mL; in the experiment on Klebsiella pneumoniae [2] (setting [7]), 1 µg/mL; in the experiment with Klebsiella pneumoniae [2] (setting [8]) it was 8 µg/mL; in the experiment on Escherichia coli (setting [7]) it was 32 µg/mL. For the same molecule, the “MIC in combination, Antibiotic” value was 8.0 µg/mL in the experiment with Staphylococcus aureus (setting [7]) and 32 µg/mL in the experiment with Staphylococcus aureus (setting [8]). Further, the FIC of antibiotic with Bacillus cereus (in combination with SP-BIM 9) is listed as 0.252; with Bacillus cereus (in combination with SP-BIM 13) it was 1.00; in the experiment with Enterococcus faecium (in combination with SP-BIM 13) it was 1.0; in the experiment on Streptococcus pneumoniae [1] (Streptococcus pneumoniae, in combination with SP-BIM 13) it was 0.1; in the experiment on Klebsiella pneumoniae [2] (in combination with SP-BIM 9), 0.008; with Klebsiella pneumoniae [2] (in combination with SP-BIM 13), 0.1. Further, the FIC of antibiotic was found to be 1.0 in the experiment with Escherichia coli (combination with SP-BIM 13); 0.256 in the experiment on Escherichia coli (in combination with SP-BIM 9); 0.03 with Staphylococcus aureus (in combination with SP-BIM 9); 0.1 in the experiment on Staphylococcus aureus (in combination with SP-BIM 13); 1.0 with Candida albicans (combination with SP-BIM 13). For the same molecule, the “MIC in combination: Antibiotic” value with Candida albicans (MIC of the antibiotic in combination with SP-BIM 13) is on record as 250.
As to `Oc1ccc2[nH]cc(C(c3ccc(Br)cc3)c3c[nH]c4ccc(O)cc34)c2c1` [SP-BIM 26, 3,3′-((4-bromophenyl)methylene)bis(1H-indol-5-ol)], the “MIC of vancomycin in combination with […] SP-BIM 26” value in the experiment with Escherichia coli O157:H7 (E. coli O157:H7) was determined as 4 µg/mL. For the same molecule, in the experiment on Escherichia coli O157:H7 (read-out: MIC (single agent)), the MIC was greater than 250 µg/mL.
As to `Oc1ccc2[nH]cc(C(c3cc(O)c(O)c(O)c3)c3c[nH]c4ccc(O)cc34)c2c1` [SP-BIM 27, 5-(bis(5-hydroxy-1H-indol-3-yl)methyl)benzene-1,2,3-triol], the MIC in the experiment on Escherichia coli O157:H7 (read-out: MIC of SP-BIM 27) is greater than 250 µg/mL.
Consider `Oc1ccc2[nH]cc(C(c3cccc(Br)c3)c3c[nH]c4ccc(O)cc34)c2c1` [SP-BIM 28, 3,3′-((3-bromophenyl)methylene)bis(1H-indol-5-ol)], for which the MIC in the experiment on Escherichia coli O157:H7 (read-out: MIC SP-BIM 28) stood at 250 µg/mL (≈ 577 µM).

These data come from patent US12285407B2, “Bis-indolylmethane derivatives and uses thereof” (The University of The West Indies, priority 2018, dated 2025).
